Common to all, as to format: functional
Assay [1] concerns Mycobacterium tuberculosis. The assay can be described thus: Antitubercular activity against Mycobacterium tuberculosis H37Rv ATCC 27294 after 5 days by micro plate alamar blue assay. The conditions noted are these: H37Rv ATCC 27294, 120 h. (In general: Alamar Blue is a resazurin reagent that responds to reducing activity.)
Assay [2] concerns Mycobacterium tuberculosis. The assay can be described thus: Antitubercular activity against Mycobacterium tuberculosis H37Rv ATCC 27294 assessed as ratio of compound or rifampicin MIC to MIC for compound in presence of rifampicin after 5 days by micro plate alamar blue assay.
For assay [3], the system named is Mycobacterium tuberculosis. The assay can be described thus: Antitubercular activity against Mycobacterium tuberculosis H37Rv ATCC 27294 assessed as ratio of compound or ciprofloxacin MIC to MIC for compound in presence of ciprofloxacin after 5 days by micro plate alamar blue assay.
The test system of assay [4] is Mycobacterium tuberculosis. Kind of assay: Antitubercular activity against Mycobacterium tuberculosis H37Rv ATCC 27294 assessed as ratio of compound or pyrazinamide MIC to MIC for compound in presence of pyrazinamide after 5 days by micro plate alamar blue assay.
The test system of assay [5] is Mycobacterium tuberculosis. Kind of assay: Antitubercular activity against Mycobacterium tuberculosis H37Rv ATCC 27294 assessed as ratio of compound or streptomycin MIC to MIC for compound in presence of streptomycin after 5 days by micro plate alamar blue assay.

≈ marks a conversion by molar mass, not a printed value.

As a reminder, the MIC is the smallest concentration in the dilution series that meets the test's criterion for growth inhibition. Molecule `CC(=O)CC(=O)/C=C/c1ccc(O)c(O)c1` yielded an MIC in assay [1] of 25 µg/mL (≈ 114 µM). On the same count and under the same terms, for `COc1cc(CCC(=O)CC(C)=O)ccc1O` the value was 6.25 µg/mL (≈ 26.5 µM). The same measure, in the same setting: for `COc1cc(/C=C/C(=O)CC(C)=O)ccc1O` the value was 25 µg/mL (≈ 107 µM). Molecule `CC(=O)CC(=O)/C=C/c1ccc(O)cc1` displayed an MIC in assay [1] of 25 µg/mL (≈ 122 µM). For the same molecule, the Ratio in assay [2] is 0.062; in assay [3], 0.062; in assay [4] it was 0.25; in assay [5], 0.125. In turn, `COc1ccc(/C=C/C(=O)CC(C)=O)cc1OC` yielded an MIC in assay [1] of 100 µg/mL (≈ 403 µM).

`COc1ccc(/C=C/C(=O)CC(C)=O)cc1` registered an MIC in assay [1] of 50 µg/mL (≈ 229 µM). As for `CC(=O)CC(=O)CCc1ccc(O)cc1`, the MIC in assay [1] worked out at 1.6 µg/mL (≈ 7.76 µM). Moreover, the Ratio in assay [2] is reported as 0.062; in assay [3], 0.031; in assay [4], 0.25; in assay [5] it was 0.25. For `COc1ccc(CCC(=O)CC(C)=O)cc1`, the MIC in assay [1] worked out at 25 µg/mL (≈ 113 µM). On the same count and under the same terms, for `COc1ccc(CCC(=O)CC(C)=O)cc1OC` the value was 100 µg/mL (≈ 400 µM); for `COc1ccc(CCC(=O)CC(C)=O)c(OC)c1OC`, more than 100 µg/mL. `COc1ccc(/C=C/C(=O)CC(C)=O)c(OC)c1OC` came in with an MIC in assay [1] of 100 µg/mL (≈ 359 µM). On the same count and under the same terms, for `CC(=O)CC(=O)CCc1ccc(O)c(O)c1` the value was 3.12 µg/mL (≈ 14.1 µM); for `COc1cc(/C=C/C(=O)CC(C)=O)ccc1OC(C)=O`, more than 100 µg/mL; for `COc1cc(/C=C/C(=O)CC(C)=O)cc(OC)c1OC`, 50 µg/mL (≈ 180 µM).

Molecule `COc1cc(/C=C/C(=O)CC(C)=O)cc(OC)c1OC(C)=O` returned an MIC in assay [1] of more than 100 µg/mL. Same read-out and setting: for `COc1cc(CCC(=O)CC(C)=O)cc(OC)c1O` the value was 12.5 µg/mL (≈ 46.9 µM); for `CC(=O)CC(=O)/C=C/c1ccc(OC(C)=O)cc1`, 100 µg/mL (≈ 406 µM); for `COc1cc(/C=C/C(=O)CC(C)=O)cc(OC)c1O`, 50 µg/mL (≈ 189 µM). Still for that read-out and setting: for `COc1cc(CCC(=O)CC(C)=O)cc(OC)c1OC(C)=O` the value was 100 µg/mL (≈ 324 µM); for `COc1cc(OC)c(/C=C/C(=O)CC(C)=O)c(OC)c1`, 100 µg/mL (≈ 359 µM).

In turn, `O=C(O)c1cn(C2CC2)c2cc(N3CCNCC3)c(F)cc2c1=O` [CIPROFLOXACIN] gave an MIC in assay [1] of 3.12 µg/mL (≈ 9.43 µM). In the case of `COc1cc(/C=C/C(=O)CC(=O)/C=C/c2ccc(O)c(OC)c2)ccc1O` [CURCUMIN], the MIC in assay [1] was more than 100 µg/mL.

For the molecule `CC[C@@H](CO)NCCN[C@@H](CC)CO` [ETHAMBUTOL], the MIC in assay [1] was determined as 1.6 µg/mL (≈ 7.83 µM).

In assay [1], `NNC(=O)c1ccncc1` [ISONIAZID] returned an MIC of 0.8 µg/mL (≈ 5.83 µM). For `NC(=O)c1cnccn1` [PYRAZINAMIDE], the lowest concentration to inhibit growth in assay [1] (MIC) was 3.12 µg/mL (≈ 25.4 µM). This MIC is about 3.9-fold higher than that of the molecule before. On the same count and under the same terms, for `CO[C@H]1/C=C/O[C@@]2(C)Oc3c(C)c(O)c4c(O)c(c(/C=N/N5CCN(C)CC5)c(O)c4c3C2=O)NC(=O)/C(C)=C\C=C\[C@H](C)[C@H](O)[C@@H](C)[C@@H](O)[C@@H](C)[C@H](OC(C)=O)[C@@H]1C` [RIFAMPIN] the value was 1.6 µg/mL (≈ 1.94 µM); for `CN[C@@H]1[C@H](O[C@H]2[C@H](O[C@H]3[C@H](O)[C@@H](O)[C@H](N=C(N)N)[C@@H](O)[C@@H]3N=C(N)N)O[C@@H](C)[C@]2(O)C=O)O[C@@H](CO)[C@H](O)[C@H]1O` [STREPTOMYCIN], 6.25 µg/mL (≈ 10.7 µM); for `C=C/C(C)=C/[C@@]1(C)SC(=O)C(C)=C1O` [THIOLACTOMYCIN], 12.5 µg/mL (≈ 59.4 µM).

For the origin of these results see ChEMBL document CHEMBL3870343, “Synthesis, screening and docking analysis of hispolon analogs as potential antitubercular agents” (2017).
